Two molecules from patent publication US5763235A (priority 1994, dated 1998) can be followed below.

Molecules are shown by their SMILES. Where two headings read alike, the source gives them in different places.

The subject of experiment [1] is Rhodobacter sphaeroides IFO 12203. To be noted: glycine 30 mM, 30° C., dark. Here is the method:
(§1) A 500 ml portion of medium 1 was prepared in a 2 l capacity shaking flask. This was sterilized at 121° C. for 15 minutes and then spontaneously cooled.
(§2) Separately from this, each of the mutant strains CR-514, CR-520 and CR-533 obtained in Example 3 was inoculated into a 21 mm.phi. test tube containing 10 ml of medium 1 which was sterilized in the same manner as described in the foregoing and cultured in the dark at 30° C. for 48 hours on a shaker.
(§3) The entire portion of each culture broth was inoculated into the aforementioned shaking flask and cultured in the dark at 30° C. for 48 hours on a shaker, and the resulting cells were collected by centrifugation.
(§4) The thus collected cells were suspended in 150 ml of sterilized medium 1, to a wet cell density of about 0.3 g/10 ml, and the cell suspension was mixed with 30 mM of glycine and dispensed in 10 ml portions into 21 mm.phi. test tubes. After adding varied concentration of levulinic acid, shaking culture was carried out at 30° C. in the dark.
(§5) (Clinical Chemistry, 36(8): 1494 (1990)).

Experiment [2] concerns strain CR-514. Particulars: glycine 30 mM, 30° C., dark. Here is the method:
as §1, §2, §3, §4, §5

For experiment [3], the system named is strain CR-533. Particulars: glycine 30 mM, 30° C., dark. Here is the method:
as §1, §2, §3, §4, §5

Experiment [4] concerns strain CR-520. Particulars: glycine 30 mM, 30° C., dark. The protocol: as §1, §2, §3, §4, §5
In experiment [5] the target is ALA dehydratase variant of strain CR-520. Nature of the experiment: ALA dehydratase reaction with crude enzyme of strain CR-520. Type of experiment: biochemical, Rhodobacter sphaeroides CR-520. Particulars: inhibitor constant of levulinic acid, Dixon plot; enzyme of CR-520; 37° C., 60 minutes; unit not given (concentrations in method in mM).
In experiment [6] the target is ALA dehydratase variant of strain CR-514. Nature of the experiment: ALA dehydratase reaction with crude enzyme of strain CR-514. Particulars: enzyme of CR-514, unit not given (concentrations in method in mM). Type of experiment: biochemical, Rhodobacter sphaeroides CR-514.
Experiment [7] relates to Rhodobacter sphaeroides CR-450. To be noted: glycine 30 mM, 30° C., dark. The protocol: as §1, §2, §3, §4, §5
The process of Example 4 was conducted, except that Rhodobacter sphaeroides CR-450 was used and the amount of levulinic acid was changed as shown in Table 3.

Experiment [8] has as its target ALA dehydratase of Rhodobacter sphaeroides CR-450. Nature of the experiment: ALA dehydratase reaction with crude enzyme of CR-450 (Comparative Example 2). It counts as biochemical. To be noted: inhibitor constant of levulinic acid, Dixon plot, 37° C., 60 minutes, unit not given (concentrations in method in mM).
The target of experiment [9] is ALA dehydratase of strain CR-533. Particulars: inhibitor constant of levulinic acid, Dixon plot; enzyme of CR-533; 37° C., 60 minutes; unit not given (concentrations in method in mM).

On to `CC(=O)CCC(=O)O` [levulinic acid], for which the “Amount of ALA formed after 15 hours” value in experiment [1] (levulinic acid 5 mM) stood at 0.01 mM; in experiment [1] (levulinic acid 15 mM) it was 0.1 mM; in experiment [2] (levulinic acid 1 mM), 1.5 mM; in [2] (levulinic acid 5 mM) it was 2.0 mM; in [2] (levulinic acid 10 mM), 2.2 mM; in experiment [3] (levulinic acid 5 mM), 1.7 mM. The “Amount of ALA formed after 15 hours” value in experiment [3] (levulinic acid 15 mM) was 2.4 mM; in experiment [3] (levulinic acid 30 mM), 2.2 mM; in experiment [4] (levulinic acid 0.5 mM), 2.0 mM; in [4] (levulinic acid 1 mM), 2.5 mM; in [4] (levulinic acid 5 mM) it was 3.0 mM; in experiment [7] (levulinic acid 5 mM), 1.5 mM. The “Amount of ALA formed after 15 hours” value is on record as 2.5 mM in [7] (levulinic acid 15 mM) and 2.0 mM in [7] (levulinic acid 30 mM). In addition, the “Amount of ALA formed after 30 hours” value in [1] (levulinic acid 5 mM) was found to be 0 mM; in [1] (levulinic acid 15 mM) it was 0 mM; in [2] (levulinic acid 1 mM) it was 1.5 mM; in [2] (levulinic acid 5 mM) it was 3.0 mM; in [2] (levulinic acid 10 mM) it was 4.1 mM; in experiment [3] (levulinic acid 5 mM), 2.4 mM. Further, the “Amount of ALA formed after 30 hours” value in experiment [3] (levulinic acid 15 mM) is 3.9 mM; in [3] (levulinic acid 30 mM), 3.3 mM; in [4] (levulinic acid 0.5 mM) it was 2.8 mM; in experiment [4] (levulinic acid 1 mM), 4.5 mM; in [4] (levulinic acid 5 mM), 6.5 mM; in [7] (levulinic acid 5 mM), 1.5 mM. For the same molecule, the “Amount of ALA formed after 30 hours” value in [7] (levulinic acid 15 mM) is given as 3.8 mM; in [7] (levulinic acid 30 mM), 2.5 mM. Moreover, the Ki (as a rule, the equilibrium dissociation constant of an inhibitor or competing ligand from its target) in experiment [5] is 0.07 mM; in experiment [6] (inhibitor constant of levulinic acid, Dixon plot, 37° C., 60 minutes) it was 0.21 mM; in experiment [8] it was 0.37 mM; in experiment [9] it was 0.36 mM.

In the case of `NCC(=O)CCC(=O)O` [ALA, 5-aminolevulinic acid], the Km (commonly the concentration of substrate that gives half-maximal velocity) in experiment [6] (Michaelis constant for ALA, Lineweaver-Burk) was determined as 0.76 mM.
